The results in this text go back to US20250197374A1, “WEE1 DEGRADING COMPOUNDS AND USES THEREOF” (BRISTOL-MYERS SQUIBB COMPANY, priority 2023, published 2025).

The experiment has as its target T1, WEE1 (Homo sapiens, UniProt P30291+Q96SW2).
T1 construct: C-terminal ePL-tagged (DiscoverX, Fremont, CA) full-length WEE1 expression construct; expressed in transfected cells; host or cells: LentiX-HEK293T (Invitrogen), lentivirally transduced; the cells also over-express GSPT1-GN
Put plainly: WEE1-ePL degradation assay (293T-LentiX, InCELL Hunter luminescence, 4 hr). The class given is cell-based. To be noted: for 293T-LentiX WEE1-ePL Degradation 4 hr YMin (%): lower limit of fit, % of DMSO control signal remaining; for DC50: LentiX-HEK293T cells expressing WEE1-ePL, 4 hr incubation, read-out: 293T-LentiX WEE1-ePL Degradation 4 hr EC50. The source says: To generate LentiX-WEE1-ePL-GSPT1-ND cells for the WEE1 degradation assay, LentiX-HEK293T (Invitrogen) were tranduced by lentivirus with a C-terminal ePL-tagged (DiscoverX, Fremont, CA) full-length WEE1 expression construct. A separate lentiviral construct was introduced to over-express a mutated form of GSPT1 (NP_002085), termed GSPT1-GN, which contains a G575N mutation and is further truncated in the first 158 amino acids. GSPT1-GN is functional but not degradable by Cereblon. Cells were selected and maintained in complete DMEM media (DMEM, 10% Heat Inactivated FBS, 400 μg/mL Geneticin, and 1 μg/mL puromycin at 37 C and 5% CO2). Cells were passaged every 3-4 days by reseeding 1×10^6 cells in a T150 flask.
Cells were dispensed into 384-well white plates (Corning #3570, NY) that were pre-spotted with compounds using an acoustic dispenser (Echo acoustic transfer system, Beckman Coulter Life Sciences, Carlsbad, CA) as a 10-point dose-response curve with a 3-fold dilution starting at either 1 uM or 10 uM and including a DMSO control. Twenty-five microliters of media containing 2500 cells for LentiX-oeWEE1-ePL was dispensed per well. Assay plates were incubated at 37° C. with 5% CO2 for four hours (WEE1) After incubation, 25 μL of the InCELL Hunter™ Detection Reagent Working Solution (DiscoverX, Fremont, CA) was added to each well and incubated at room temperature for 30 minutes protected from light. After 30 minutes, luminescence was read on a PHERAstar luminometer (Cary, NC).
To determine the half-maximal effective concentration (EC50) values for WEE1-ePL degradation, a four parameter logistic model was used: (Sigmoidal Dose-Response Model) (FIT=(A+((B−A)/1+((C/x)^D)))) where C is the inflection point (EC50), D is the Hill slope, and A and B are the low and high limits of the fit respectively). The lower limit of the fit (value A) is referred to as Ymin. […] The maximum limit constraint, Ymax, is similarly derived using DMSO control. The curves were processed and evaluated using Activity Base (IDBS, Alameda, CA) or using Dotmatics (Boston, MA).

T1 sequence (P30291 whole entry): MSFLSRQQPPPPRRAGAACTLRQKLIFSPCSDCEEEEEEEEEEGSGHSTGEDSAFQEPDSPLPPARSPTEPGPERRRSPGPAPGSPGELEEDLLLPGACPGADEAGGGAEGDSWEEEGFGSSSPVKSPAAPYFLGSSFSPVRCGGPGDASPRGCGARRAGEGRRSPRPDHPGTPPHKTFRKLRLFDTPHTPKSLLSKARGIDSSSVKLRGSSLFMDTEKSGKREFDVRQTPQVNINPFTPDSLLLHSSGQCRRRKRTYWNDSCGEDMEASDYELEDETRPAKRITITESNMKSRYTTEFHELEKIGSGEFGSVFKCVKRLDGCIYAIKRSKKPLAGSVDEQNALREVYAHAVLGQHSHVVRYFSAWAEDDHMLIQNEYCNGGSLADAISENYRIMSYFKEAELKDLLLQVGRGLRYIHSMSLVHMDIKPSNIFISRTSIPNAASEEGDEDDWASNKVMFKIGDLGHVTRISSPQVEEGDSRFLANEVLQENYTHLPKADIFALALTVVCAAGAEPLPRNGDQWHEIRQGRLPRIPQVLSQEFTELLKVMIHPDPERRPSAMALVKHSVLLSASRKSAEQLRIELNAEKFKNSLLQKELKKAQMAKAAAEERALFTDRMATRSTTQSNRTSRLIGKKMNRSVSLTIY
T1 sequence (Q96SW2 whole entry): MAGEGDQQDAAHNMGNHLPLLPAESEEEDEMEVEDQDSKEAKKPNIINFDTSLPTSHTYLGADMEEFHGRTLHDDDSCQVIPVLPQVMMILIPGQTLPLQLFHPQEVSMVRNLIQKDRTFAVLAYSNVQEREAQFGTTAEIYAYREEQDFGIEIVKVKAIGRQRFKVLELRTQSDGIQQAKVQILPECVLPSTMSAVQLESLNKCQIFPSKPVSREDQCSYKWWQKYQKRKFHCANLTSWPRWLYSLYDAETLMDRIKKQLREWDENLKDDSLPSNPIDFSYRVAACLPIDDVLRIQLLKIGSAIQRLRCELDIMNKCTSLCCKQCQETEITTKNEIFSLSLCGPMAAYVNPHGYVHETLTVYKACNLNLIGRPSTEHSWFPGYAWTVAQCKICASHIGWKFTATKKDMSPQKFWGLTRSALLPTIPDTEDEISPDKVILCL
T1 sequence (Q16531 whole entry partner): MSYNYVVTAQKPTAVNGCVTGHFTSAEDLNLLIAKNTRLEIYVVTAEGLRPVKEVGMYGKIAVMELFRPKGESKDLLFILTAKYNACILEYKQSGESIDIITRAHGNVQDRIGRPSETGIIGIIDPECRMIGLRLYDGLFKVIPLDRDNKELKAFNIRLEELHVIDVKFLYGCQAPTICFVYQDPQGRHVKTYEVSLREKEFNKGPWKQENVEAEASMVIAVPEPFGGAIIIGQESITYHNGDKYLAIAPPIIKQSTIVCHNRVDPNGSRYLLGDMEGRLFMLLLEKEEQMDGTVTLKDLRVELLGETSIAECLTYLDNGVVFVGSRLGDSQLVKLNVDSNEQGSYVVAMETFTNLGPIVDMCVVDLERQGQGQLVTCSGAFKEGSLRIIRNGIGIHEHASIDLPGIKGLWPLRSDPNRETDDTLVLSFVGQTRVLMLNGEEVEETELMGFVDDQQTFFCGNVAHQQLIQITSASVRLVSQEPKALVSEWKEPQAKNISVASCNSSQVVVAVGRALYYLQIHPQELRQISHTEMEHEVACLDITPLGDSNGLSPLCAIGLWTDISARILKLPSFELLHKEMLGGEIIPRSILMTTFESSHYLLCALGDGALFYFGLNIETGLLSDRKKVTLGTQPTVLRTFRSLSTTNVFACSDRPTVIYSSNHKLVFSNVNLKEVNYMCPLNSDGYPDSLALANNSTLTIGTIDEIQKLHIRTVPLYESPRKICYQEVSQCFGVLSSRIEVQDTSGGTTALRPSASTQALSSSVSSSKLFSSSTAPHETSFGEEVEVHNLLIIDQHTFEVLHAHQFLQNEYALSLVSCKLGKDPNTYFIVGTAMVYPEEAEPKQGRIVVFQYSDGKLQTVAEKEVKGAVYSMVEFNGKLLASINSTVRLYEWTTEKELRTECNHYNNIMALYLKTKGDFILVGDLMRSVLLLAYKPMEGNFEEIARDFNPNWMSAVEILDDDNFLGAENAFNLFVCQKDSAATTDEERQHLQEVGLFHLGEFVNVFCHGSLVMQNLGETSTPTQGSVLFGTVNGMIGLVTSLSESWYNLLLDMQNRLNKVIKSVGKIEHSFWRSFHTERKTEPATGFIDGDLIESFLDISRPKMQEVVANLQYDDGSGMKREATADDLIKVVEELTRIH

For the compound `Cc1cc([C@@H]2CN(Cc3cc(F)c4nc(C5CCOCC5)ccc4c3)C[C@H]2Oc2ccc3c(c2)CN([C@H]2CCC(=O)NC2=O)C3=O)ccn1` (relative stereo) [Example 126, (3S)-3-(5-{[(3S*,4R*)-1-{[8-fluoro-2-(oxan-4-yl)quinolin-6-yl]methyl}-4-(2-methylpyridin-4-yl)pyrrolidin-3-yl]oxy}-1-oxo-2,3-dihydro-1H-isoindol-2-yl)piperidine-2,6-dione], the “293T-LentiX WEE1-ePL Degradation 4 hr YMin (%)” value amounted to 90.0%. Same read-out and setting: the same measure for `CC(C)(C)C[C@@H]1CN(Cc2cc(F)c3nc(C4CCOCC4)ccc3c2)C[C@H]1Oc1ccc2c(c1)CN([C@H]1CCC(=O)NC1=O)C2=O` (relative stereo) [Example 131, (3S)-3-(5-{[(3S*,4R*)-4-(2,2-dimethylpropyl)-1-{[8-fluoro-2-(oxan-4-yl)quinolin-6-yl]methyl}pyrrolidin-3-yl]oxy}-1-oxo-2,3-dihydro-1H-isoindol-2-yl)piperidine-2,6-dione]: 100.0%. Turning to `O=C1CCC(N2Cc3cc(O[C@@H]4CN(Cc5cc(F)c6nc(C7CCOCC7)ccc6c5)C[C@H]4OC4COC4)ccc3C2=O)C(=O)N1` (relative stereo) [Example 133, rel-3-(5-(((3R,4R)-1-((8-fluoro-2-(tetrahydro-2H-pyran-4-yl)quinolin-6-yl)methyl)-4-(oxetan-3-yloxy)pyrrolidin-3-yl)oxy)-1-oxoisoindolin-2-yl)piperidine-2,6-dione], the DC50 is 0.07 µM and the “293T-LentiX WEE1-ePL Degradation 4 hr YMin (%)” value amounted to 58.0%. Turning to `CC(C)(C)C[C@H]1CN(Cc2cc(F)c3nc(C4CCOCC4)ccc3c2)C[C@@H]1Oc1ccc2c(c1)CN([C@H]1CCC(=O)NC1=O)C2=O` (relative stereo) [Example 150, (3S)-3-(5-{[(3R*,4S*)-4-(2,2-dimethylpropyl)-1-{[8-fluoro-2-(oxan-4-yl)quinolin-6-yl]methyl}pyrrolidin-3-yl]oxy}-1-oxo-2,3-dihydro-1H-isoindol-2-yl)piperidine-2,6-dione], the DC50 was determined as 0.01 µM and the “293T-LentiX WEE1-ePL Degradation 4 hr YMin (%)” value came to 48.5%. For the compound `Cc1cc([C@H]2CN(Cc3cc(F)c4nc(C5CCOCC5)ccc4c3)C[C@@H]2Oc2ccc3c(c2)CN([C@H]2CCC(=O)NC2=O)C3=O)ccn1` (relative stereo) [Example 151, (3S)-3-(5-{[(3R*,4S*)-1-{[8-fluoro-2-(oxan-4-yl)quinolin-6-yl]methyl}-4-(2-methylpyridin-4-yl)pyrrolidin-3-yl]oxy}-1-oxo-2,3-dihydro-1H-isoindol-2-yl)piperidine-2,6-dione], the DC50 worked out at 0.011 µM and the “293T-LentiX WEE1-ePL Degradation 4 hr YMin (%)” value stood at 22.4%. In the case of `O=C1CCC(N2Cc3cc(O[C@H]4CN(Cc5cc(F)c6nc(C7CCOCC7)ccc6c5)C[C@@H]4OC4COC4)ccc3C2=O)C(=O)N1` (relative stereo) [Example 152, rel-3-(5-(((3S,4S)-1-((8-fluoro-2-(tetrahydro-2H-pyran-4-yl)quinolin-6-yl)methyl)-4-(oxetan-3-yloxy)pyrrolidin-3-yl)oxy)-1-oxoisoindolin-2-yl)piperidine-2,6-dione], the “293T-LentiX WEE1-ePL Degradation 4 hr YMin (%)” value is 82.2%.

For the compound `COC[C@@H]1CN(Cc2ccc3ncc(N4CCOCC4)cc3c2F)C[C@H]1Oc1ccc2c(c1)CN([C@H]1CCC(=O)NC1=O)C2=O` [Example 31, (3S)-3-(5-{[(3S,4S)-1-{[5-fluoro-3-(morpholin-4-yl)quinolin-6-yl]methyl}-4-(methoxymethyl)pyrrolidin-3-yl]oxy}-1-oxo-2,3-dihydro-1H-isoindol-2-yl)piperidine-2,6-dione], the “293T-LentiX WEE1-ePL Degradation 4 hr YMin (%)” value was found to be 20.1%. On to `COC[C@@H]1CN(Cc2cc(F)c3cc(N4CCOCC4)ncc3c2)C[C@H]1Oc1ccc2c(c1)CN([C@H]1CCC(=O)NC1=O)C2=O` [Example 49, (3S)-3-(5-{[(3S,4S)-1-{[5-fluoro-3-(morpholin-4-yl)isoquinolin-7-yl]methyl}-4-(methoxymethyl)pyrrolidin-3-yl]oxy}-1-oxo-2,3-dihydro-1H-isoindol-2-yl)piperidine-2,6-dione], for which the DC50 was 0.002 µM and the “293T-LentiX WEE1-ePL Degradation 4 hr YMin (%)” value was determined as 24.5%.
